Reference: patent US20200230155A1, “TOPICAL CORTICOSTEROID COMPOSITIONS” (Encore Dermatology, Inc., priority 2014, published 2020)
Read-outs that look alike come from different tables or passages of the source.

Key:
[1] = system: intact skin of healthy volunteers; test: Irritation patch test study under semi-occlusive conditions; details: continuous exposure under semi occlusion, 21 patch applications over 21 days
Source text: This was a randomized, double-blind, single-center, vehicle-controlled, within-subject comparison patch test study of followings for irritation potential when repeatedly applied to the skin under semi-occlusive conditions in healthy volunteers: • i. […] Vehicle spray (without active agent of Composition 6), • iii.
All subjects received applications of each study product to intact skin at randomly assigned, adjacent sites on the back. Evaluators and subjects were blinded and unaware of the identity of the study product at the patch test sites. The study products were applied under semi-occlusive patch conditions using a 2 cm×2 cm patch. The products were applied to either side of the infrascapular area of the back. Evaluation of dermal reactions at the application sites were assessed clinically using a visual scale that rates the degree of erythema, edema, and other signs of cutaneous irritation.
A total of 21 patch applications were made over a period of 21 days. Irritancy score of each composition was recorded.

[2] = cited from earlier work
skin blanching = details: in vivo; cited from earlier work

SMILES	Irritation [1]	Solubility ([2]; in acetone)	Solubility ([2]; in chloroform)	Solubility ([2]; in ethanol)	Solubility ([2]; in water)	VCA potency class (skin blanching)
CCCCCCCCCCCCOS(=O)(=O)[O-].[Na+] [0.2% SLS, Sodium lauryl sulfate]	Significantly more irritation					
CCC(=O)OCC(=O)[C@@]1(OC(=O)CC)[C@@H](C)C[C@H]2[C@@H]3CCC4=CC(=O)C=C[C@]4(C)[C@@]3(F)[C@@H](O)C[C@@]21C [Betamethasone dipropionate, 9-fluoro-11(β),17,21-trihydroxy-16(β)-methylpregna-1,4-diene-3,20-dione 17,21-dipropionate]		freely soluble	freely soluble	sparingly soluble	practically insoluble	super potent (Class 1) and/or high potent (Class 2)
